pIC50: −log10 of the molar value.
Experiments:
CES2 (cocaine esterase) [1] = target: T1, CES2 (cocaine esterase) (Homo sapiens, UniProt O00748); assay: in vitro; conditions: recombinant CES2, probe CPT-11 (conversion to SN-38)
T1 sequence (O00748 whole entry): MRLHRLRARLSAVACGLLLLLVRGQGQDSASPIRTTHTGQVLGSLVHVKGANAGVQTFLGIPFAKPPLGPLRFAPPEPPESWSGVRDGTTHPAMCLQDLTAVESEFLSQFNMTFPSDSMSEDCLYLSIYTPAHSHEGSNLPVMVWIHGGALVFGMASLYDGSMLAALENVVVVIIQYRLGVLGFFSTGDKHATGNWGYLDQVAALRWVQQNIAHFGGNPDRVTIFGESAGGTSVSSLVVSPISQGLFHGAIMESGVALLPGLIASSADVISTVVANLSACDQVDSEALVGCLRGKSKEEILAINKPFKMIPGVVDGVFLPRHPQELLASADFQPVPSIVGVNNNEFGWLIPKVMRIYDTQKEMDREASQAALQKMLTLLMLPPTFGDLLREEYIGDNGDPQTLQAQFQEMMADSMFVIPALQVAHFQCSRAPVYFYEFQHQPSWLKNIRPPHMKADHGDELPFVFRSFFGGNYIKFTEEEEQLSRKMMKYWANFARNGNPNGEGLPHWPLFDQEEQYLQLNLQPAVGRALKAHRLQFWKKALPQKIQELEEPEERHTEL

CES2 (cocaine esterase) [2] = target: T1, CES2 (cocaine esterase); assay: Inhibition of human recombinant CES2 activity assessed as fluorescence of the AP product using Benz-AP as substrate by measuring residual activity at 40 uM relative to control; conditions: recombinant CES2, probe Benz-AP
PANC-1 = assay: Cytotoxicity against human PANC-1 cells assessed as cell viability incubated for 14 days by crystal violet-based clonogenic assay; conditions: PANC-1, 336 h
Cocaine esterase = target: T2, Cocaine esterase (Homo sapiens, UniProt O00748); assay: Inhibition of human recombinant CES2 activity assessed as fluorescence of the AP product using Benz-AP as substrate
T2 sequence (O00748 whole entry): T1 sequence (O00748 whole entry)

[3] = Inhibition of human CES1 activity at 40 uM measured after 20 mins

| SMILES | inhibition at 10 min, 12 µM (CES2 (cocaine esterase) [1]) | activity at 40 µM (CES2 (cocaine esterase) [2]) | pIC50 (Cocaine esterase) | pIC50 (PANC-1) | pIC50 [3] |
| --- | --- | --- | --- | --- | --- |
| CCc1c2c(nc3ccc(OC(=O)N4CCC(N5CCCCC5)CC4)cc13)-c1cc3c(c(=O)n1C2)COC(=O)[C@]3(O)CC [IRINOTECAN] | – | – | – | 4.96 | – |
| COc1cc2c(cc1OC)C(C)N(C(=O)c1cc3c(s1)-c1ccccc1S(=O)(=O)C3)CC2 (configuration not stated) | 31% | 13% | > 8.00 | – | – |
| CC(C)c1ccccc1OC(=O)NCCc1ccc2ccccc2c1 | – | – | – | – | 7.64 |
| CCOc1ccc2ncc(S(=O)(=O)c3ccc(OC)cc3)c(N3CCC4(CC3)OCCO4)c2c1 | 94% | 1.3% | 7.18 | – | – |
| Cc1ccc(Nc2nc(C(=O)NCc3ccccc3)cc3occc23)cc1 | 63% | 3% | > 8.00 | – | – |
| Cc1ccc(CN2Cc3cc4ccc(C)c(C)c4nc3OC2=O)o1 | – | 0.2% | 7.74 | – | 7.21 |

Now from value to compound, other results behind:

| inhibition at 10 min, 12 µM (CES2 (cocaine esterase) [1]) | activity at 40 µM (CES2 (cocaine esterase) [2]) | pIC50 (Cocaine esterase) | SMILES | pIC50 (PANC-1) | pIC50 [3] |
| --- | --- | --- | --- | --- | --- |
| 51% | 37% | – | CCn1c(=O)c2sc(N3CCCC3)nc2n(CC(=O)Nc2cccc(Cl)c2C)c1=O | – | – |
| 95% | -0.17% | 6.75 | CC(C)CN1C(=O)CCc2cc(NC(=O)Cc3cccc(F)c3)ccc21 | – | – |
| 91% | 0.9% | > 8.00 | O=C(CSc1cn(CC(=O)N2CCCC2)c2ccccc12)Nc1ccc(F)cc1F | – | – |

Source: ChEMBL document CHEMBL5537194, “Tight-Binding Small-Molecule Carboxylesterase 2 Inhibitors Reduce Intracellular Irinotecan Activation” (J Med Chem, 2024)
